Assay results reported in US20080312331A1, “Method of Treating Dailysis-Induced Hypotension” (SOLAPHARM, INC., priority 2005, published 2008).
Entries after “also recorded” stand apart in the source; their conditions may differ.

Test: Hemodialysis session in a patient with end-stage renal disease who regularly develops hypotension during dialysis (Example 2)
Format: in vivo
Procedure: A patient with end-stage renal disease is scheduled for hemodialysis at 11 AM. The patient's resting blood pressure is 130/80 mm Hg. At 10:40 AM the day of the 11 AM hemodialysis, the patient swallows a tablet comprising 16 mg of desglymidodrine (approximately equal in activity to 20 mg of midodrine).
In a subsequent dialysis day, the patient swallows a desglymidodrine 16 mg. tablet 20 minutes before the onset of dialysis. […] Intravenous desglymidodrine is then promptly administered by a nurse by a push infusion at a dose of 8 mg.

For COc1ccc(OC)c(C(O)CN)c1 (stereo not drawn) [desglymidodrine], the “blood pressure after treatment of intradialytic hypotension” value (8 mg intravenous push infusion after hypotension developed one hour into the dialysis session) was “blood pressure normalizes”, the “adverse symptoms during hemodialysis” value (end-stage renal disease patient, 16 mg tablet swallowed 20 minutes before hemodialysis) was “no adverse symptoms are exhibited” and the “blood pressure during hemodialysis” value (end-stage renal disease patient, 16 mg tablet swallowed 20 minutes before onset of hemodialysis) was “blood pressure stays stable; also recorded: develops hypotension”.
